Converted amounts (≈) assume the structure as drawn.

The values below come from EPA's ToxValDB 9.5 (doi:10.2903/j.efsa.2011.2091).

Data set [1] deals with Anas platyrhynchos. As to conditions: reproductive; mortality.
Data set [2] deals with Bibionidae. The conditions noted are these: chronic/long-term; duration: 28 days; development.
The test system of data set [3] is Colinus virginianus. The conditions noted are these: acute, oral, mortality; for LC50: diet.
Data set [4] concerns Rattus norvegicus.
In data set [5] the test system is Apis mellifera. As to conditions: acute, mortality.
Data set [6] has as its system Daphnia magna. The conditions noted are these: chronic/long-term; duration: 21 days; reproduction.
Data set [7] has as its system Landoltia sp. As to conditions: acute; duration: 14 days; frond number.
The subject of data set [8] is Lepomis macrochirus. The conditions noted are these: acute; duration: 96 hours; mortality.
For data set [9], the system named is Oncorhynchus mykiss. The conditions noted are these: chronic/long-term; duration: 21 days; mortality.
The subject of data set [10] is Oryctolagus sp. As to conditions: chronic; mortality.
The subject of data set [11] is Tagia sp.

Turning to `CCCCCCC(C)OC(=O)COc1nc(F)c(Cl)c(N)c1Cl` (centres undefined) [Fluroxypyr-meptyl], the NOEC was 57.8 mg/kg-day in data set [1] and 0.13 mg/L in data set [2]. The same compound yielded an LC50 in data set [3] of over 1040 mg/kg-day. For the same compound, the LD50 in data set [3] was over 2000 mg/kg-day; in [4] (acute, oral, mortality) it was over 2000 mg/kg-day.

For `Nc1c(Cl)c(F)nc(OCC(=O)O)c1Cl` [Fluroxypyr], the NOEC in [1] is 40.1 mg/kg-day; in [6] it was 56 mg/L; in data set [9], 100 mg/L; in data set [11] (chronic/long-term, duration: 56 days), 3.05 mg/kg. For the same compound, the LD50 is over 180 µg/piece in [5] (dermal); 37.1 µg/piece in data set [5] (oral, unspecified); over 2000 mg/kg-day in [3]. Moreover, the LC50 in [3] was over 757 mg/kg-day; in data set [7], 12.3 mg/L (≈ 48.2 µM); in [8] it was 14.3 mg/L (≈ 56.1 µM); in [11] (acute, duration: 14 days, mortality), 64.8 mg/kg. In addition, in data set [10], the NOEL is 100 mg/kg-day. Moreover, the NOAEL turned out to be 80 mg/kg-day in data set [4] (chronic, duration: 2 years) and 80 mg/kg-day in data set [4] (subchronic, oral).

A word on the NOAEL: it is the highest tested level that showed no adverse finding.
